Measurements from patent US20140286906A1, “USE OF IGF-1 IN THE MODULATION OF TREG CELL ACTIVITY AND THE TREATMENT AND PREVENTION OF AUTOIMMUNE DISORDERS OR DISEASES” (priority 2011, published 2014).
Like-named read-outs stand apart in the source and are kept apart here.

How the values were obtained:
[1] = tested on: CD4+CD25+ cells; assay: Annexin V / living dye apoptosis flow cytometry, CD4+CD25+ cells; type: cell-based, murine
From the text: (§1) The effects of IGF-1 on apoptosis can be measured by flow cytometry. By using a combination of a living dye and Annexin V staining it is possible to determine four different cell populations which correspond to non-apoptotic, necrotic, early and late apoptosis.
(§2) Initially, and in order to characterize the in vitro effects of IGF-1 on the different populations of the […] immune system, murine splenic CD4 positive cells were sorted by FACS based on the expression of CD25. This allows for the separation and enrichment of conventional T cells (CD25 negative) and regulatory T cells (CD25 positive). […] To exclude the possibility that the observed expansion was due to the anti-apoptotic properties of IGF-1, the cells in culture were stained with AnnexinV (a marker of apoptosis) and a vital dye, and then analyzed by flow cytometry.

[2] = tested on: CD4+CD25- cells (T conventional cells); assay: Annexin V / living dye apoptosis flow cytometry, CD4+CD25- cells; type: cell-based, murine
From the text: as §1, §2

[3] = tested on: CD4+CD25+ splenic cells; assay: qRT-PCR and microarray gene expression in CD4 CD25 double positive splenic cells; type: cell-based, murine
Experimental: To further support the effect of IGF-1 on T regulatory function qRT-PCR analysis was performed on CD4 CD25 double positive splenic purified cells in the presence or absence of IGF-1 (FIG. 3). […] IL-10 is a cytokine with a potent anti-inflammatory activity that is produced, among others, by regulatory T cells (Mosser and Zhang, 2008) and its expression is not dependent on Foxp3 expression (Gavin et al., 2007). Foxp3 IL10 expressing cells mainly localize in the intestine and are important regulators of intestine homeostasis. For example, mice with conditional deletion of IL-10 develop spontaneous inflammation of the intestine (Roers et al., 2004). […] Additionally, IL-10 is also important for the maintenance of Foxp3 expression in vivo in mice with colitis (Murai et al., 2009). The inventors performed microarray analysis comparing IGF-1 treated and untreated Tregs. […] An example of these genes is granzyme B, which enables T regulatory cells to actively kill APCs and Teff cells in extreme conditions. These and other mechanisms are believed to lead in vivo to the resolution of the immune response (Tang and Bluestone, 2008). Thus, maintaining the suppressive function after cell expansion was a critical aspect regarding the use of IGF-1 for restoring the balance of effector and regulatory.

[4] = tested on: T effector cell proliferation; assay: in vitro suppression of T effector cell proliferation by IGF-1 treated Tregs; type: cell-based; settings: antigen presenting cells and soluble anti-CD3; Treg:Teff 1:2 to 1:64
[5] = tested on: CD4+CD25+ splenic cells; assay: flow cytometry of activation and homing markers on CD4+CD25+ splenic cells; type: cell-based, murine; settings: after IGF-1 treatment in vitro
From the text: The expression of certain markers on the surface of the cell is correlated with the degree of activation of the cells and also controls their trafficking and localization and consequently the compartmentalization of the immune responses. This is again measured using flow cytometric methods. For example, cells expressing high levels of CD62L preferentially migrate to secondary lymphoid tissues. However, as these cells enter the periphery (for example when they travel to affected tissues during an autoimmune process) they rapidly acquire an activated phenotype and express higher levels of CD44. Thus upregulation of CD44 is associated with a higher proliferation rate. […] The importance of this observation comes from the fact that in order to exert their suppressive properties, Tregs need to migrate to the affected tissues first. Therefore, IGF-1 not only induces activation of proliferation but also promotes their correct localization.
Finally, the inventors analyzed the ability of IGF-1 to alter the homing properties of the regulatory T cell subset. In 2003, Fisson et al. defined two distinct population of regulatory T cells in homeostatic conditions. In the steady state, some Tregs remain quiescent for long periods of time, whereas the other Treg population divides extensively and express multiple activation markers. […] This pattern of change is also consistent with a more activated phenotype. On one hand, CD44^hiCD62L^lo Treg populations, but not their CD44^loCD62L^hi counterparts, constantly incorporate BrdU, a synthetic analog of thymidine, into newly synthesized DNA in lymphoid tissues (Matsushima and Takashima, 2010). On the other hand, higher levels of CD62L have been associated with a higher capacity of Tregs to migrate to the lymph nodes, while lower levels allows them to migrate to sites of inflammation (Fisson et al., 2003; Bromley et al., 2008). Thus, T regulatory cells expressing lower levels of CD62L would have a higher inflammation-seeking capacity, which has been associated with higher suppressive potential in various inflammation models (Huehn et al., 2005). […] One, IGF-1 is able to activate a complex pathway resulting in Treg activation leading to proliferation and to selective homing and migration to the sites of inflammation. The second conclusion comes from the observation that sequential migration from blood to the target tissue and then to draining lymph nodes is required for nTreg to differentiate and execute fully their suppressive function, by inhibiting dendritic cells in the peripheral tissue and T effector cell responses in dLN and periphery (Zhang et al., 2009). Thus, IGF-1 treatment not only results in higher numbers of T regulatory cells but also in altering the trafficking of these cells to achieve a higher suppressive effect. […]

[6] = tested on: CD4+ cells isolated from mesenteric lymph nodes; assay: intraperitoneal injection, RT-PCR of CD4+ cells from mesenteric lymph nodes; type: in vivo, mice; settings: five intraperitoneal daily injections (5 μg); RT-PCR after the fifth day; n=30, P=0.0241
[7] = mouse, in vivo
Experimental: The inventors first tested the ability of rhIGF-1 to alter the balance of Treg/CD4 positive cells after five intraperitoneal daily injections (5 μg, FIG. 11).

[8] = mouse, in vivo; remark: listed apart in the source
[9] = tested on: experimental autoimmune encephalomyelitis (EAE); settings: cited from earlier work
[10] = qRT-PCR, compared to non-treated cultures

With Insulin-like growth factor-1 [IGF-1] the “distribution of Annexin V and living dye stained populations” value [1] was “No difference”, the protection from apoptosis [2] was “partially protected from apoptosis” and the “granzyme B gene expression” value ([3]; microarray, IGF-1 treated versus untreated Tregs) was “upregulated”. For the same substance, the “Foxp3 mRNA” value [3, 10] was “upregulated from day 1”, the “IL-10 mRNA” value [3, 10] was “upregulated but with delayed kinetics” and the “ability of Treg cells to suppress T effector cell proliferation after treatment” value [4] was “retain their ability to suppress T effector cell proliferation”. For the same substance, the CD44 surface expression [5] was “upregulated”, the CD62L surface expression [5] was “down” and the CD71 surface expression [5] was “upregulated”. For the same substance, the “expression of Foxp3 in CD4+ cells from mesenteric lymph nodes” value [6] was “increased expression”, the “hIGF-1 in peripheral blood” value [7] was “Elevated levels” and the “increase of IGF-1 levels determined by ELISA” value [7] was 40 and 4. For the same substance, the tumors at necropsy [8] was “never found tumors”, the “course of EAE” value ([9]; 10 mg/kg per day given after disease onset (Lovett-Racke et al.)) was “did not significantly alter the course of disease” and the “course of EAE” value ([9]; 10 mg/kg per day given before disease onset (Lovett-Racke et al.)) was “mild protection”. The “clinical course of EAE” value ([9]; administration during the acute phase (Cannella et al.)) was “some transient clinical amelioration” and the “clinical course of EAE” value ([9]; chronic phase (Cannella et al.)) was “no effect”.
